According to PubChem BioAssay (NCI):
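Grown in 96-well plates, cells were treated for 48 hours with each compound at five concentrations. Insufficient inhibition: endpoint recorded as highest concentration tested. TGI marks complete inhibition of growth.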

Key:
Test in all cases: growth of human tumour cells (NCI), 48 h
786-0 renal = tested on: 786-0 renal
A498 renal = tested on: A498 renal
A549 NSCLC = tested on: A549 NSCLC
ACHN renal = tested on: ACHN renal
BT-549 breast = tested on: BT-549 breast
CAKI-1 renal = tested on: CAKI-1 renal
CCRF-CEM leukemia = tested on: CCRF-CEM leukemia
COLO 205 colon = tested on: COLO 205 colon
DU-145 prostate = tested on: DU-145 prostate
EKVX NSCLC = tested on: EKVX NSCLC
HCC-2998 colon = tested on: HCC-2998 colon
HCT-116 colon = tested on: HCT-116 colon
HCT-15 colon = tested on: HCT-15 colon
HL-60(TB) leukemia = tested on: HL-60(TB) leukemia
HOP-62 NSCLC = tested on: HOP-62 NSCLC
HS 578T breast = tested on: HS 578T breast
HT29 colon = tested on: HT29 colon
IGROV1 ovarian = tested on: IGROV1 ovarian
K-562 leukemia = tested on: K-562 leukemia
KM12 colon = tested on: KM12 colon
LOX IMVI melanoma = tested on: LOX IMVI melanoma
M14 melanoma = tested on: M14 melanoma
MALME-3M melanoma = tested on: MALME-3M melanoma
MCF7 breast = tested on: MCF7 breast
MDA-MB-231 breast = tested on: MDA-MB-231 breast
MDA-MB-435 = tested on: MDA-MB-435
MDA-N = tested on: MDA-N
MOLT-4 leukemia = tested on: MOLT-4 leukemia
NCI-H226 lung = tested on: NCI-H226 lung
NCI-H23 lung = tested on: NCI-H23 lung
NCI-H460 lung = tested on: NCI-H460 lung
NCI-H522 lung = tested on: NCI-H522 lung
NCI/ADR-RES ovarian = tested on: NCI/ADR-RES ovarian
OVCAR-3 ovarian = tested on: OVCAR-3 ovarian
OVCAR-4 ovarian = tested on: OVCAR-4 ovarian
OVCAR-5 ovarian = tested on: OVCAR-5 ovarian
OVCAR-8 ovarian = tested on: OVCAR-8 ovarian
PC-3 prostate = tested on: PC-3 prostate
RPMI-8226 leukemia = tested on: RPMI-8226 leukemia
RXF 393 renal = tested on: RXF 393 renal
SF-268 CNS = tested on: SF-268 CNS
SF-295 CNS = tested on: SF-295 CNS
SF-539 CNS = tested on: SF-539 CNS
SK-MEL-2 melanoma = tested on: SK-MEL-2 melanoma
SK-MEL-28 melanoma = tested on: SK-MEL-28 melanoma
SK-MEL-5 melanoma = tested on: SK-MEL-5 melanoma
SN12C renal = tested on: SN12C renal
SNB-19 CNS = tested on: SNB-19 CNS
SNB-75 CNS = tested on: SNB-75 CNS
SR leukemia = tested on: SR leukemia
SW-620 colon = tested on: SW-620 colon
T-47D breast = tested on: T-47D breast
TK-10 renal = tested on: TK-10 renal
U251 CNS = tested on: U251 CNS
UACC-257 melanoma = tested on: UACC-257 melanoma
UACC-62 melanoma = tested on: UACC-62 melanoma
UO-31 renal = tested on: UO-31 renal

SMILES: Nc1ccc(Cc2ccc(N=Cc3ccc(OCc4cccc(COc5ccc(C=Nc6ccc(Cc7ccc(N)cc7)cc6)cc5)n4)cc3)cc2)cc1
- TGI (786-0 renal): > 100 µM
- TGI (A498 renal): > 100 µM
- TGI (A549 NSCLC): > 100 µM
- TGI (ACHN renal): > 100 µM
- TGI (BT-549 breast): > 100 µM
- TGI (CAKI-1 renal): > 100 µM
- TGI (CCRF-CEM leukemia): > 100 µM
- TGI (COLO 205 colon): > 100 µM
- TGI (DU-145 prostate): > 100 µM
- TGI (EKVX NSCLC): > 100 µM
- TGI (HCC-2998 colon): > 100 µM
- TGI (HCT-116 colon): > 100 µM
- TGI (HCT-15 colon): > 100 µM
- TGI (HL-60(TB) leukemia): > 100 µM
- TGI (HOP-62 NSCLC): > 100 µM
- TGI (HS 578T breast): > 100 µM
- TGI (HT29 colon): > 100 µM
- TGI (IGROV1 ovarian): > 100 µM
- TGI (K-562 leukemia): > 100 µM
- TGI (KM12 colon): > 100 µM
- TGI (LOX IMVI melanoma): > 100 µM
- TGI (M14 melanoma): > 100 µM
- TGI (MALME-3M melanoma): > 100 µM
- TGI (MCF7 breast): > 100 µM
- TGI (MDA-MB-231 breast): > 100 µM
- TGI (MDA-MB-435): > 100 µM
- TGI (MDA-N): > 100 µM
- TGI (MOLT-4 leukemia): > 100 µM
- TGI (NCI-H226 lung): > 100 µM
- TGI (NCI-H23 lung): > 100 µM
- TGI (NCI-H460 lung): > 100 µM
- TGI (NCI-H522 lung): > 100 µM
- TGI (NCI/ADR-RES ovarian): > 100 µM
- TGI (OVCAR-3 ovarian): > 100 µM
- TGI (OVCAR-4 ovarian): > 100 µM
- TGI (OVCAR-5 ovarian): > 100 µM
- TGI (OVCAR-8 ovarian): > 100 µM
- TGI (PC-3 prostate): > 100 µM
- TGI (RPMI-8226 leukemia): > 100 µM
- TGI (RXF 393 renal): 68 µM
- TGI (SF-268 CNS): > 100 µM
- TGI (SF-295 CNS): > 100 µM
- TGI (SF-539 CNS): 26.6 µM
- TGI (SK-MEL-2 melanoma): > 100 µM
- TGI (SK-MEL-28 melanoma): > 100 µM
- TGI (SK-MEL-5 melanoma): > 100 µM
- TGI (SN12C renal): > 100 µM
- TGI (SNB-19 CNS): > 100 µM
- TGI (SNB-75 CNS): 39.7 µM
- TGI (SR leukemia): > 100 µM
- TGI (SW-620 colon): > 100 µM
- TGI (T-47D breast): > 100 µM
- TGI (TK-10 renal): > 100 µM
- TGI (U251 CNS): > 100 µM
- TGI (UACC-257 melanoma): > 100 µM
- TGI (UACC-62 melanoma): > 100 µM
- TGI (UO-31 renal): > 100 µM
